Data as given in the NIST ThermoML archive (doi:10.1016/j.jct.2006.05.012).
± gives the expanded uncertainty stated by the source.

Experiments:
[1] = 298.15 K; 101 kPa; Liquid
[2] = xn = mol fraction of the nth substance listed; conditions: 298.15 K, 101 kPa, Liquid

C=CC(=O)OCCCC [butyl 2-propenoate]
mass density [1]: 893.96 ± 0.15 kg/m3

C=CC(=O)OCCCC [butyl 2-propenoate] + C=C(C)C(=O)OC
mass density ([2]; x1 = 0.025): 936.15 ± 0.12 kg/m3 | mass density ([2]; x1 = 0.0501): 934.64 ± 0.13 kg/m3 | mass density ([2]; x1 = 0.1001): 931.77 ± 0.13 kg/m3 | mass density ([2]; x1 = 0.1502): 929.01 ± 0.13 kg/m3 | mass density ([2]; x1 = 0.2): 926.33 ± 0.13 kg/m3 | mass density ([2]; x1 = 0.25): 923.76 ± 0.13 kg/m3 | mass density ([2]; x1 = 0.2946): 921.53 ± 0.13 kg/m3 | mass density ([2]; x1 = 0.3498): 918.85 ± 0.14 kg/m3 | mass density ([2]; x1 = 0.3992): 916.57 ± 0.14 kg/m3 | mass density ([2]; x1 = 0.45): 914.28 ± 0.14 kg/m3 | mass density ([2]; x1 = 0.4999): 912.12 ± 0.14 kg/m3 | mass density ([2]; x1 = 0.5499): 910.04 ± 0.14 kg/m3 | mass density ([2]; x1 = 0.5999): 908.01 ± 0.14 kg/m3 | mass density ([2]; x1 = 0.644): 906.27 ± 0.15 kg/m3 | mass density ([2]; x1 = 0.6991): 904.19 ± 0.15 kg/m3 | mass density ([2]; x1 = 0.7499): 902.33 ± 0.15 kg/m3 | mass density ([2]; x1 = 0.8002): 900.52 ± 0.15 kg/m3 | mass density ([2]; x1 = 0.8504): 898.81 ± 0.15 kg/m3 | mass density ([2]; x1 = 0.8994): 897.15 ± 0.15 kg/m3 | mass density ([2]; x1 = 0.9499): 895.53 ± 0.15 kg/m3 | mass density ([2]; x1 = 0.9749): 894.72 ± 0.15 kg/m3 | mass density ([2]; x1 = 1): 893.96 ± 0.15 kg/m3

C=CC(=O)OCCCC [butyl 2-propenoate] + Cc1ccccc1
mass density ([2]; x2 = 0): 893.955 ± 0.15 kg/m3 | mass density ([2]; x2 = 0.0255): 893.406 ± 0.15 kg/m3 | mass density ([2]; x2 = 0.0508): 892.895 ± 0.15 kg/m3 | mass density ([2]; x2 = 0.0999): 891.775 ± 0.16 kg/m3 | mass density ([2]; x2 = 0.1509): 890.523 ± 0.16 kg/m3 | mass density ([2]; x2 = 0.2006): 889.277 ± 0.16 kg/m3 | mass density ([2]; x2 = 0.2506): 887.998 ± 0.16 kg/m3 | mass density ([2]; x2 = 0.2996): 886.7 ± 0.16 kg/m3 | mass density ([2]; x2 = 0.3597): 885.033 ± 0.16 kg/m3 | mass density ([2]; x2 = 0.4006): 883.858 ± 0.16 kg/m3 | mass density ([2]; x2 = 0.4504): 882.402 ± 0.16 kg/m3 | mass density ([2]; x2 = 0.5015): 880.847 ± 0.16 kg/m3 | mass density ([2]; x2 = 0.55): 879.307 ± 0.17 kg/m3 | mass density ([2]; x2 = 0.6006): 877.659 ± 0.17 kg/m3 | mass density ([2]; x2 = 0.6502): 875.977 ± 0.17 kg/m3 | mass density ([2]; x2 = 0.7003): 874.219 ± 0.17 kg/m3 | mass density ([2]; x2 = 0.7501): 872.408 ± 0.17 kg/m3 | mass density ([2]; x2 = 0.8): 870.53 ± 0.17 kg/m3 | mass density ([2]; x2 = 0.8499): 868.551 ± 0.17 kg/m3 | mass density ([2]; x2 = 0.9001): 866.487 ± 0.17 kg/m3 | mass density ([2]; x2 = 0.95): 864.338 ± 0.18 kg/m3 | mass density ([2]; x2 = 0.9751): 863.216 ± 0.18 kg/m3

C=C(C)C(=O)OC [methyl methacrylate]
mass density [1]: 937.65 ± 0.12 kg/m3

C=C(C)C(=O)OC [methyl methacrylate] + C=CC(=O)OCCCC
mass density ([2]; x2 = 0): 937.65 ± 0.12 kg/m3

C=C(C)C(=O)OC [methyl methacrylate] + Cc1ccccc1
mass density ([2]; x2 = 0): 937.646 ± 0.12 kg/m3 | mass density ([2]; x2 = 0.0249): 935.719 ± 0.12 kg/m3 | mass density ([2]; x2 = 0.0501): 933.759 ± 0.13 kg/m3 | mass density ([2]; x2 = 0.1005): 929.859 ± 0.13 kg/m3 | mass density ([2]; x2 = 0.15): 926.06 ± 0.13 kg/m3 | mass density ([2]; x2 = 0.1994): 922.3 ± 0.13 kg/m3 | mass density ([2]; x2 = 0.2497): 918.45 ± 0.14 kg/m3 | mass density ([2]; x2 = 0.3001): 914.63 ± 0.14 kg/m3 | mass density ([2]; x2 = 0.35): 910.852 ± 0.14 kg/m3 | mass density ([2]; x2 = 0.3998): 907.089 ± 0.14 kg/m3 | mass density ([2]; x2 = 0.4501): 903.299 ± 0.15 kg/m3 | mass density ([2]; x2 = 0.5): 899.556 ± 0.15 kg/m3 | mass density ([2]; x2 = 0.5501): 895.803 ± 0.15 kg/m3 | mass density ([2]; x2 = 0.5979): 892.219 ± 0.16 kg/m3 | mass density ([2]; x2 = 0.6486): 888.421 ± 0.16 kg/m3 | mass density ([2]; x2 = 0.6998): 884.596 ± 0.16 kg/m3 | mass density ([2]; x2 = 0.7499): 880.84 ± 0.16 kg/m3 | mass density ([2]; x2 = 0.794): 877.532 ± 0.17 kg/m3 | mass density ([2]; x2 = 0.8481): 873.485 ± 0.17 kg/m3 | mass density ([2]; x2 = 0.9): 869.606 ± 0.17 kg/m3 | mass density ([2]; x2 = 0.95): 865.864 ± 0.17 kg/m3 | mass density ([2]; x2 = 0.9731): 864.133 ± 0.18 kg/m3

Cc1ccccc1 [toluene]
mass density [1]: 862.11 ± 0.18 kg/m3

Cc1ccccc1 [toluene] + C=C(C)C(=O)OC
mass density ([2]; x1 = 1): 862.11 ± 0.18 kg/m3

Cc1ccccc1 [toluene] + C=CC(=O)OCCCC
mass density ([2]; x1 = 1): 862.11 ± 0.18 kg/m3
